Source: patent US10167266B2, “Sodium channel blockers” (Parion Sciences, Inc., priority 2002, dated 2019)
Where a name gives a salt, the structure may show the parent alone.

Legend:
[1] = tested on: sodium channel (ENaC), canine bronchial epithelia; assay: Sodium channel blocking activity: inhibition of short circuit current (ISC) in airway epithelial monolayers in Ussing chambers; assay type: cell-based; conditions: for Fold Amiloride* / Fold Enhancement Over Amiloride: potency in canine bronchial epithelia relative to amiloride
Protocol: One assay used to assess mechanism of action and/or potency of the compounds of the present invention involves the determination of lumenal drug inhibition of airway epithelial sodium currents measured under short circuit current (ISC) using airway epithelial monolayers mounted in Ussing chambers. Cells obtained from freshly excised human, dog, sheep or rodent airways are seeded onto porous 0.4 micron Snapwell™ Inserts (CoStar), cultured at air-liquid interface (ALI) conditions in hormonally defined media, and assayed for sodium transport activity (ISC) while bathed in Krebs Bicarbonate Ringer (KBR) in Using chambers. All test drug additions are to the lumenal bath with half-log dose addition protocols (from 1×10^−11 M to 3×10^−5 M), and the cumulative change in ISC (inhibition) recorded. All drugs are prepared in dimethyl sulfoxide as stock solutions at a concentration of 1×10^−2 M and stored at −20° C. Eight preparations are typically run in parallel; two preparations per run incorporate amiloride and/or benzamil as positive controls. After the maximal concentration (5×10^−5 M) is administered, the lumenal bath is exchanged three times with fresh drug-free KBR solution, and the resultant ISC measured after each wash for approximately 5 minutes in duration. Reversibility is defined as the percent return to the baseline value for sodium current after the third wash. All data from the voltage clamps are collected via a computer interface and analyzed off-line.
Dose-effect relationships for all compounds are considered and analyzed by the Prism 3.0 program. IC50 values, maximal effective concentrations, and reversibility are calculated and compared to amiloride and benzamil as positive controls.
Amiloride was also tested in this assay as a positive control. The results for the compounds of the present invention are reported as fold-enhancement values relative to amiloride.

melting point	SMILES	other results
148 °C (dec.)	Cl.N=C(NCCCCc1ccc(OCC(O)C(O)CO)cc1)NC(=O)c1nc(Cl)c(N)nc1N (stereo not drawn)	–
200 to 205 °C	N=C(NCCCCc1ccccc1OCC(O)CO)NC(=O)c1nc(Cl)c(N)nc1N (stereo not drawn) (as salt: hydrochloride) [drawing 69: R=CH2OH, Ortho, 4-[2-(2-,3-Dihydroxypropyloxy)phenyl)]butylamidino-3,5-diamino-6-chloropyrazinecarboxamide hydrochloride]	–
140 to 170 °C (dec.)	N=C(N)c1ccc(CCCCNC(N)=NC(=O)c2nc(Cl)c(N)nc2N)cc1 [drawing 62: X=C═NH, Y=NH2, 4-{4-[N′-(3,5-Diamino-6-chloropyrazine-2-carbonyl)guanidino]butyl}benzamidine]	Fold Amiloride* ([1]; Example 43): 53.2 ± 19.3 (2) fold
161 °C	N=C(NCCCCc1ccc(OCCOC2CCCCO2)cc1)NC(=O)c1nc(Cl)c(N)nc1N (stereo not drawn) [Example 20]	–
223 to 230 °C	Cl.Cl.N=C(N)NCCOc1ccc(CCCCNC(=N)NC(=O)c2nc(Cl)c(N)nc2N)cc1 [drawing 64: X=NH—C(═NH)—NH2, N-(3,5-diamino-6-chloropyrazine-2-carbonyl)-N′-{4-[4-(2-guanidinoethoxy)-phenyl]butyl}guanidine dihydrochloride]	Fold potency relative to amiloride ([1]; Example 51): 98.0 ± 58.5 (18); Fold Amiloride* ([1]; Example 45): 120.6 ± 60.8 (11) fold
93 to 96 °C (dec.)	Cl.Cl.N=C(NCCCCc1ccc(OCCN(C[C@@H](O)[C@@H](O)CO)C[C@@H](O)[C@@H](O)CO)cc1)NC(=O)c1nc(Cl)c(N)nc1N [drawing 67: O CH2 CH2 NR R^a,c (r18), N-[4-(4-{2-[bis-((2R,3S)-2,3,4-trihydroxybutyl)amino]ethoxy}phenyl)-butyl]-N′-(3,5-diamino-6-chloropyrazine-2-carbonyl)guanidine dihydrochloride]	Fold Amiloride* ([1]; Example 48): 56.0 (1) fold
161 to 163 °C (dec.)	N=C(NCCCCc1cccc(OCCO)c1)NC(=O)c1nc(Cl)c(N)nc1N (as salt: hydrochloride) [drawing 69: R=H, Meta, 4-[3-(2-Hydroxyethyloxy)phenyl)butylamidino-3,5-diamino-6-chloropyrazinecarboxamide hydrochloride]	–
110 to 125 °C	COCCOCCOc1ccc(CCCCNC(=N)NC(=O)c2nc(Cl)c(N)nc2N)cc1 (as salt: hydrochloride) [drawing 50: n=2, 4-[4-(1,4,7-Trioxaoct-1-yl)phenyl]-butyl amidino-3,5-diamino-6-chloropyrazinecarboxamide hydrochloride]	–
91 to 93 °C	N=C(NCCCCc1cccc(OCC(O)CO)c1)NC(=O)c1nc(Cl)c(N)nc1N (stereo not drawn) (as salt: hydrochloride) [drawing 69: R=CH2OH, Meta, 4-[3-(2-,3-Dihydroxypropyloxyl)phenyl)]butylamidino-3,5-diamino-6-chloropyrazinecarboxamide hydrochloride]	–
212 to 214 °C	CC(O)COc1ccc(CCCCNC(=N)NC(=O)c2nc(Cl)c(N)nc2N)cc1 (stereo not drawn) (as salt: hydrochloride) [Example 18, 4-[4-(2-Hydroxypropyloxy)phenyl)]butylamidino-3,5-diamino-6-chloropyrazinecarboxamide hydrochloride]	–
195 to 200 °C	N=C(NCCCCc1ccc(N)cc1)NC(=O)c1nc(Cl)c(N)nc1N (as salt: hydrochloride) [drawing 60: R=NH2, N=0, 4-[4-(4-Amino)phenyl)]butylamidino-3,5-diamino-6-chloropyrazinecarboxamide hydrochloride]	–
–	COCCOCCOCCOCCOc1ccc(CCCCNC(=N)NC(=O)c2nc(Cl)c(N)nc2N)cc1.Cl [drawing 50: n=4, 4-[4-(1,4,7,10,13-pentoxatetradec-1-yl)phenyl]-butylamidino-3,5-diamino-6-chloropyrazinecarboxamide hydrochloride]	Fold Enhancement Over Amiloride ([1]; Example 30): 28.7 fold
–	COC(=O)C1OC(Oc2ccc(CCCCNC(N)=NC(=O)c3nc(Cl)c(N)nc3N)cc2)C(OC(C)=O)C(OC(C)=O)C1OC(C)=O (stereo not drawn) [drawing 51: R^5=40, 4-[4-(Methyl-2,3,4-tri-O-acetyl-glucopyranonuronate-1-O-yl)phenyl]butylamidino-3,5-diamino-6-chloropyrazinecarboxamide]	Fold Enhancement Over Amiloride ([1]; Example 31): 65 fold
> 178 °C (dec.)	N=C(NCCCCc1ccc(OCCN)cc1)NC(=O)c1nc(Cl)c(N)nc1N (as salt: hydrochloride) [drawing 61: R=NH2, n=2, 4-[4-(2-aminoethyloxy)phenyl)butylamidino-3,5-diamino-6-chloropyrazinecarboxamide hydrochloride]	–
